# Results as given in US4882313A, “Carboxamide derivatives of glycopeptides” (SmithKline Beckman Corporation, priority 1987, dated 1989).
# Experiments:
# [1] = tested on: Staphylococcus epidermidis; test: standard microtiter assay, minimum inhibitory concentration; format: cell-based; parameters: minimum inhibitory concentration of antibiotic, Test Organism 8: unit not given here; conditions: for minimum inhibitory concentration of antibiotic, Test Organism 6: Test Organism 6, strain of Staphylococcus epidermidis; for minimum inhibitory concentration of antibiotic, Test Organism 8: Test Organism 8, strain of Staphylococcus epidermidis; for minimum inhibitory concentration of antibiotic, Test Organism 11: Test Organism 11, strain of Staphylococcus epidermidis; for minimum inhibitory concentration of antibiotic, Test Organism 13: Test Organism 13, strain of Staphylococcus epidermidis; for minimum inhibitory concentration of antibiotic, Test Organism 14: Test Organism 14, strain of Staphylococcus epidermidis
# Excerpt: (§1) Representative results of standard microtiter assays are reported in Table 1 which follows, as the minimum inhibitory concentration of antibiotic (mg/ml). In Table 1, test organisms 1-5 were different strains of Staphylococcus aureus; 6, 8, 11, 13 and 14 were different strains of Staphylococcus epidermidis; 7 was a Staphylococcus haemolyticus; 9 and 10 were different strains of Streptococcus faecalis; and 12 was a Staphylococcus saprophyticus.
# [2] = pI (analytical data, Table 2); format: physicochemical
# Excerpt: Using substantially the procedures of both Examples 1 and 2, the compounds of Examples 3-15 were obtained by using the appropriate glycopeptide and amine starting materials.
# [3] = tested on: Staphylococcus saprophyticus; test: standard microtiter assay, minimum inhibitory concentration; format: cell-based; conditions: Test Organism 12, Staphylococcus saprophyticus
# Excerpt: as §1
# Staphylococcus aureus = test: as above; format: cell-based; conditions: for minimum inhibitory concentration of antibiotic, Test Organism 1: Test Organism 1, strain of Staphylococcus aureus; for minimum inhibitory concentration of antibiotic, Test Organism 2: Test Organism 2, strain of Staphylococcus aureus; for minimum inhibitory concentration of antibiotic, Test Organism 3: Test Organism 3, strain of Staphylococcus aureus; for minimum inhibitory concentration of antibiotic, Test Organism 4: Test Organism 4, strain of Staphylococcus aureus; for minimum inhibitory concentration of antibiotic, Test Organism 5: Test Organism 5, strain of Staphylococcus aureus
# Excerpt: as §1
# [4] = tested on: Staphylococcus haemolyticus; test: as above; format: cell-based; conditions: Test Organism 7, Staphylococcus haemolyticus
# Excerpt: as §1
# Streptococcus faecalis = test: as above; format: cell-based; conditions: for minimum inhibitory concentration of antibiotic, Test Organism 9: Test Organism 9, strain of Streptococcus faecalis; for minimum inhibitory concentration of antibiotic, Test Organism 10: Test Organism 10, strain of Streptococcus faecalis
# Excerpt: as §1
Structure (SMILES),"minimum inhibitory concentration of antibiotic, Test Organism 6 [1]","minimum inhibitory concentration of antibiotic, Test Organism 8 [1]","minimum inhibitory concentration of antibiotic, Test Organism 11 [1]","minimum inhibitory concentration of antibiotic, Test Organism 13 [1]",pI [2],"minimum inhibitory concentration of antibiotic, Test Organism 12 [3]","minimum inhibitory concentration of antibiotic, Test Organism 1 (Staphylococcus aureus)","minimum inhibitory concentration of antibiotic, Test Organism 2 (Staphylococcus aureus)","minimum inhibitory concentration of antibiotic, Test Organism 3 (Staphylococcus aureus)","minimum inhibitory concentration of antibiotic, Test Organism 4 (Staphylococcus aureus)","minimum inhibitory concentration of antibiotic, Test Organism 5 (Staphylococcus aureus)","minimum inhibitory concentration of antibiotic, Test Organism 7 [4]","minimum inhibitory concentration of antibiotic, Test Organism 9 (Streptococcus faecalis)","minimum inhibitory concentration of antibiotic, Test Organism 10 (Streptococcus faecalis)","minimum inhibitory concentration of antibiotic, Test Organism 14 [1]"
"CNC1C(=O)NC2C(=O)NC(C(=O)NC3C(=O)NC4C(=O)NC(C(=O)NC(C(=O)NCCN)c5cc(O)cc(OC6OC(CO)C(O)C(O)C6O)c5-c5cc4ccc5O)C(O)c4cc(Cl)c(c(Cl)c4)Oc4cc3cc(c4O)Oc3ccc(cc3Cl)C2O)c2cc(cc(O)c2Cl)Oc2cc1ccc2O (centres unmarked) [Compound 2o, Ardacin mannosylaglycone-(2-aminoethyl amide)]",400 mg/L,0.8,800 mg/L,100 mg/L,7.8,400 mg/L,400 mg/L,400 mg/L,400 mg/L,400 mg/L,400 mg/L,1600 mg/L,200 mg/L,200 mg/L,
"CCCCCCCCCC(=O)NC1C(Oc2c3cc4cc2Oc2c(Cl)cc(cc2Cl)C(O)C2NC(=O)C(NC(=O)C4NC(=O)C4NC(=O)C(NC(=O)C(NC)c5ccc(O)c(c5)Oc5cc(O)c(Cl)c4c5)C(O)c4ccc(c(Cl)c4)O3)c3ccc(O)c(c3)-c3c(OC4OC(CO)C(O)C(O)C4O)cc(O)cc3C(C(=O)NCCO)NC2=O)OC(C(=O)NCCO)C(O)C1O (centres unmarked) [Compound 2l, Ardacin A-di-(2-hydroxyethyl amide)]",1600 mg/L,0.4,800 mg/L,200 mg/L,7.3,800 mg/L,200 mg/L,200 mg/L,200 mg/L,400 mg/L,400 mg/L,800 mg/L,100 mg/L,100 mg/L,
"CNCCNC(=O)C1NC(=O)C2NC(=O)C(NC(=O)C3NC(=O)C4NC(=O)C(NC(=O)C(NC)c5ccc(O)c(c5)Oc5cc(O)c(Cl)c4c5)C(O)c4ccc(c(Cl)c4)Oc4cc3cc(c4O)Oc3c(Cl)cc(cc3Cl)C2O)c2ccc(O)c(c2)-c2c(O)cc(O)cc21 (centres unmarked) [Compound 2f, Ardacin aglycone-(2-Nmethylaminoethyl amide)]",200 mg/L,0.1,100 mg/L,50 mg/L,7.7,100 mg/L,200 mg/L,200 mg/L,100 mg/L,200 mg/L,100 mg/L,200 mg/L,100 mg/L,100 mg/L,100 mg/L
"CNC1C(=O)NC2C(=O)NC(C(=O)NC3C(=O)NC4C(=O)NC(C(=O)NC(C(=O)NCCO)c5cc(O)cc(O)c5-c5cc4ccc5O)C(O)c4cc(Cl)c(c(Cl)c4)Oc4cc3cc(c4O)Oc3ccc(cc3Cl)C2O)c2cc(cc(O)c2Cl)Oc2cc1ccc2O (centres unmarked) [Compound 2d, Ardacin aglycone-(2-hydroxyethyl amide)]",400 mg/L,,800 mg/L,200 mg/L,7.1,400 mg/L,50 mg/L,50 mg/L,50 mg/L,200 mg/L,200 mg/L,800 mg/L,200 mg/L,,400 mg/L
"CCCCCCCCCC(=O)NC1C(Oc2c3cc4cc2Oc2c(Cl)cc(cc2Cl)C(O)C2NC(=O)C(NC(=O)C4NC(=O)C4NC(=O)C(NC(=O)C(NC)c5ccc(O)c(c5)Oc5cc(O)c(Cl)c4c5)C(O)c4ccc(c(Cl)c4)O3)c3ccc(O)c(c3)-c3c(OC4OC(CO)C(O)C(O)C4O)cc(O)cc3C(C(=O)NN)NC2=O)OC(C(=O)NN)C(O)C1O (centres unmarked) [Compound 2k, Ardacin A dihydrazide]",12500 mg/L,12.5,12500 mg/L,3100 mg/L,7.0,6300 mg/L,3100 mg/L,3100 mg/L,1600 mg/L,6300 mg/L,3100 mg/L,12500 mg/L,400 mg/L,100 mg/L,3100 mg/L
"CCCCCCCCCC(=O)NC1C(Oc2c3cc4cc2Oc2c(Cl)cc(cc2Cl)C(O)C2NC(=O)C(NC(=O)C4NC(=O)C4NC(=O)C(NC(=O)C(NC)c5ccc(O)c(c5)Oc5cc(O)c(Cl)c4c5)C(O)c4ccc(c(Cl)c4)O3)c3ccc(O)c(c3)-c3c(OC4OC(CO)C(O)C(O)C4O)cc(O)cc3C(C(N)=O)NC2=O)OC(C(N)=O)C(O)C1O (centres unmarked) [Compound 2j, Ardacin A diamide]",6300 mg/L,6.3,6300 mg/L,3100 mg/L,7.2,3100 mg/L,800 mg/L,1600 mg/L,800 mg/L,3100 mg/L,1600 mg/L,3100 mg/L,200 mg/L,100 mg/L,800 mg/L
